Measurements from patent US20250376476A1, “Crystalline forms of a HER2 tyrosine kinase inhibitor” (Boehringer Ingelheim International GmbH, priority 2024, published 2025).
Blank lines part the entries; values can stand above or below the compound they belong to.

Legend:
Type in all cases: physicochemical
[1] = Form IV slurry experiments in aqueous organic solvents with heat-cool cycles, solids analyzed by XRPD; conditions: 20 to 50° C. heat-cool cycles
Experimental: Zongertinib form IV (e.g. prepared according to any one of the procedures of reference example 1.3) was slurried in different aqueous organic solvent systems (12V, composition according to table 1) at a temperature ranging from 20 to 50° C. using a magnetic stir bar. Heat-cool-cycles were conducted using automation available on the Junior robot and as per the below program: • 1. Set stirring to 350 rpm (by means of magnetic stir bars) • 2. Heat to 50° C. (10° C./minute) • 3. Hold at 50° C. for 150 minutes • 4. Cool to 20° C. (−1° C./minute) • 5. Hold at 20° C. for 120 minutes • 6. Heat to 50° C. (5° C./minute) • 7. Hold at 50° C. for 120 minutes • 8. Cool to 20° C. (−1° C./minute) • 9. Set stirring to 0 rpm • 10. Hold at 20° C. for 16 hrs
The solids were collected and analyzed by XRPD.
(§1) XRPD was performed with a Bruker D8 Discover X-ray diffractometer. The instrument detector allows for two-dimensional diffractograms to be acquired. Solid samples were placed on a zero-background diffraction plate. The results were processed using DIFFRAC.EVA software. The diffraction pattern was integrated from two-dimensional to one-dimensional. The Kα2 contribution was stripped, no smoothing or background correction was performed. A typical precision of the 2-Theta values is in the range of ±0.2° 2-Theta, preferably in the range of ±0.1° 2-Theta. Thus, a reflection that usually appears at 7.0 2-Theta for example can appear between 6.8° and 7.2° 2-Theta, preferably between 6.9° and 7.1° 2-Theta on most X-ray diffractometers under standard conditions.

[2] = Suspension of form IV and form III stirred at 35° C. for 18 hrs, solid analyzed by XRPD; conditions: mixture of form IV and form III
Experimental: (§2) A suspension of zongertinib form IV (e.g. prepared according to any one of the procedures of reference example 1.3) and zongertinib form III (e.g. prepared according to reference example 1.2) in 20V of 1:1 (vol:vol) IPAc/water was stirred using overhead agitation at 35° C. for 18 hrs. The solid was collected and analyzed by XRPD confirming receipt of form XX.
as §2, with “water” for “1:1 (vol:vol) IPAc/water”
as §1, with “Thus, a reflection that usually appears at 7.0 2-Theta for example can appear between 6.8° and 7.2° 2-Theta, preferably between 6.9° and 7.1° 2-Theta on most X-ray diffractometers under standard conditions.” left out

[3] = Thermal gravimetric analysis (TGA); conditions: ambient to 600° C., heating rate 20° C./min
Experimental: TGA was performed with a TA Instruments TGA 550. Samples (5 mg) were heated in aluminium pans with a sealed aluminium lid from ambient temperature to 600° C. at a heating rate of 20° C./min. Processing was completed using TRIOS software.

[4] = Polarized light microscopy (PLM), crystal habit
From the text: Crystal habits of zongertinib forms XXIV, XIX and XX have been elucidated using polarized light microscopy. Depending on the starting material, form XVIII can be obtained in different crystal shapes.

[5] = Excessive drying of form XXIV and/or form XIX; conditions: typically temperatures >50° C. under vacuum
Experimental: Form XVIII is formed upon excessive drying of form XXIV and/or form XIX (e.g. prepared according to any one of examples 1.1 to 1.4 herein). Typically, drying is performed at temperatures >50° C. under vacuum.

XRPD results after slurry ([1]; 12V 1:1 (vol:vol) ACN:water): Form XIX
XRPD results after slurry ([1]; 12V 1:1 (vol:vol) EtOH:water): Form XIX
XRPD results after slurry ([1]; 12V 1:1 (vol:vol) IPAc:water): Form XXIV
XRPD results after slurry ([1]; 12V 2:1 (vol:vol) THF:water): Form XXIV
Solid form by XRPD after stirring suspension ([2]; 20V of 1:1 (vol:vol) IPAc/water): form XX
Solid form by XRPD after stirring suspension ([2]; 20V of water): form XX
Compound: C=CC(=O)NC1CCN(c2ncc3ncnc(Nc4ccc(Oc5ccc6c(c5)ncn6C)c(C)c4)c3n2)CC1 [Form IV, zongertinib]

TGA sample decomposition start temperature ([3]; listed as form XIX): about 327 °C
Crystal Habit ([4]; listed as XIX): lath-shaped crystals
Compound: C=CC(=O)NC1CCN(c2ncc3ncnc(Nc4ccc(Oc5ccc6c(c5)ncn6C)c(C)c4)c3n2)CC1 [Form XIX, zongertinib]

Continued, compound first:

Compound: C=CC(=O)NC1CCN(c2ncc3ncnc(Nc4ccc(Oc5ccc6c(c5)ncn6C)c(C)c4)c3n2)CC1 [Form XXIV, zongertinib]
TGA sample decomposition start temperature ([3]; listed as form XXIV): about 415 °C
Crystal Habit ([4]; listed as XXIV): plate-shaped and lath shaped crystals
Form obtained upon excessive drying [5]: Form XVIII

Compound: C=CC(=O)NC1CCN(c2ncc3ncnc(Nc4ccc(Oc5ccc6c(c5)ncn6C)c(C)c4)c3n2)CC1 [Form XVIII, zongertinib]
TGA sample decomposition start temperature ([3]; listed as form XVIII): about 394 °C
Crystal Habit ([4]; listed as XVIII (drying of XIX)): lath-shaped crystals
Crystal Habit ([4]; listed as XVIII (drying of XXIV)): plate-shaped and lath shaped crystals

Compound: C=CC(=O)NC1CCN(c2ncc3ncnc(Nc4ccc(Oc5ccc6c(c5)ncn6C)c(C)c4)c3n2)CC1 [Form XX, zongertinib]
TGA sample decomposition start temperature ([3]; listed as form XX): about 393 °C
Crystal Habit ([4]; listed as XX): needle-shaped crystals
